The results in this text go back to US8461124B2, “Five- and six-membered conformationally locked 2′,4′-carbocyclic ribo-thymidines for the treatment of infections and cancer” (priority 2007, dated 2013).

Bounds are passed on as bounds.

The subject of series [1] is complementary DNA. The series can be described thus: Thermal denaturation (UV melting) of AON duplexes with complementary DNA. The conditions noted are these: for Tm/° C. with DNA: 1 μM of each strand, medium salt buffer pH 7.5, average of at least three runs; for ΔTm* (Tm relative to DNA compliment): relative to native AON 1/DNA duplex. Type of series: binding.
The subject of series [2] is complementary RNA. The series can be described thus: Thermal denaturation (UV melting) of AON duplexes with complementary RNA. Type of series: binding. As to conditions: for Tm/° C. with RNA: 1 μM of each strand, medium salt buffer pH 7.5, average of at least three runs; for ΔTm (Tm relative to RNA compliment): relative to native AON 1/RNA duplex. The protocol: All 17 modified AONs have been purified as a single component on PAGE (20% polyacrylamide with 7 Molar urea), extracted with 0.3 M NaOAc and desalted with C-18 reverse phase cartridge to give AONs in >99% purity and correct mass have been obtained by MALDI-TOF mass spectroscopy for each one them (Table 1). Determination of the Tm of the AON/RNA hybrids was carried out in the following buffer: 57 mM Tris-HCl (pH 7.5), 57 mM KCl, 1 mM MgCl2. Absorbance was monitored at 260 nm in the temperature range from 20° C. to 90° C. using UV spectrophotometer equipped with Peltier temperature programmer with the heating rate of 1° C. per minute. Prior to measurements, the samples (1 μM of AON and 1 μM RNA mixture) were pre-annealed by heating to 90° C. for 5 min followed by slow cooling to 4° C. and 30 min equilibration at this temperature and are average of at least three independent runs.

Series [3] in a line: Stability of 5′-32P-labeled AONs in human blood serum (PAGE autoradiography). Type of series: in vitro ADME. The protocol: FIG. 4. Autoradiograms of 20% denaturing PAGE showing degradation patterns of 5′-^32P-labeled AONs in human blood serum (Table 1 for all AON sequences). Inset A: AON 1 and LNA-modified AONs 2-5. Inset B: Carbocyclic-LNA-modified AONs 6-9. Inset C: Carbocyclic-ENA-modified AONs 10-13 and Inset D: aza-ENA-modified AONs 14-17. Time points are taken after 0, ½, 1 h, 2 h, 5 h, 7 h, 9 h, 12 h, for AONs 1-5 and 0 h, 6 h, 8 h, 12 h, 24 h, 36 h and 48 h of incubation for AONs 6-17 at 21° C. (see Experimental Section for details).
Modified sequences (Table 1), ^32P-labeled at 5′-ends, were digested in human blood serum at 21° C. as shown in the PAGE autoradiograms (Insets A, B, C and D in FIG. 4). In order to understand
AONs (6 μL) at 2 μM concentration (5′-end ^32P labeled with specific activity 80 000 cpm) were incubated in […] of human blood serum (male AB) at 21° C. (total reaction volume was 36 μL) and the experiments were repeated twice up to 48 h. Aliquots (3 μL) were taken at 0, 30 min, 1, 2, 5, 7, 8, 9, 12, 24, 36, 48 h and quenched with 7 μL of solution containing 8 M urea and 50 mM EDTA, resolved in 20% polyacrylamide denaturing (7 M urea) gel electrophoresis and visualized by autoradiography. […] Since no new prominent cleavage products were found toward the later time points, we considered those prominent stable initial fragments as 100% during the last time points (12-48 h).

Consider “3′-d(CTTCTTTT(LNA)TTACTTC)-5′ (antisense CTTCTTTTTTACTTC; LNA-T at position 8 from 3'-end, chemistry not fully specified) [AON 4, LNA-T modified AON, position 8 from 3′-end]”, for which, in series [1], the “Tm/° C. with DNA” value was found to be 45.0 °C and the “ΔTm* (Tm relative to DNA compliment)” value worked out at 0.0 °C. In series [2], the “Tm/° C. with RNA” value was 49 °C and the “ΔTm (Tm relative to RNA compliment)” value is “+5 °C”.

For the substance “3′-d(CTTCTTTTTT(6-carbo)ACTTC)-5′ [AON 13]”, in series [1], the “Tm/° C. with DNA” value came out at 39.5 °C and the “ΔTm* (Tm relative to DNA compliment)” value was −5.5 °C. In addition, in series [2], the “Tm/° C. with RNA” value turned out to be 45.5 °C and the “ΔTm (Tm relative to RNA compliment)” value is “+1.5 °C”.

For the substance “3′-d(CTTCTTTTTT(LNA)ACTTC)-5′ (antisense CTTCTTTTTTACTTC; LNA-T at position 10 from 3'-end, chemistry not fully specified) [AON 5, LNA-T modified AON, position 10 from 3′-end]”, in series [1], the “Tm/° C. with DNA” value worked out at 46 °C and the “ΔTm* (Tm relative to DNA compliment)” value was “+1 °C”. In series [2], the “Tm/° C. with RNA” value worked out at 49 °C and the “ΔTm (Tm relative to RNA compliment)” value was “+5 °C”.

Consider “3′-d(CTT(5-carbo)CTTTTTTACTTC)-5′ (antisense CTTCTTTTTTACTTC; carbocyclic-LNA-T at position 3 from 3'-end, chemistry not fully specified) [AON 6, carbocyclic-LNA-T modified AON, position 3 from 3′-end]”, for which, in series [1], the “Tm/° C. with DNA” value stood at 45 °C and the “ΔTm* (Tm relative to DNA compliment)” value was found to be 0.00 °C. Also, in series [2], the “Tm/° C. with RNA” value was found to be 47.5 °C and the “ΔTm (Tm relative to RNA compliment)” value was “+3.5 °C”. Also, the “time to give the n−1 fragment (hydrolysis of 3′-terminal nucleotide)” value (shortened to “time … (hydrolysis of 3′-terminal nucleotide)”) in series [3] (human blood serum, 21° C.) is recorded as 2 h.

With “3′-d(CTTCTT(5-carbo)TTTTACTTC)-5′ (antisense CTTCTTTTTTACTTC; carbocyclic-LNA-T at position 6 from 3'-end, chemistry not fully specified) [AON 7, carbocyclic-LNA-T modified AON, position 6 from 3′-end]”, in series [1], the “Tm/° C. with DNA” value is 44 °C and the “ΔTm* (Tm relative to DNA compliment)” value is −1.00 °C. Also, in series [2], the “Tm/° C. with RNA” value came out at 49 °C and the “ΔTm (Tm relative to RNA compliment)” value was “+5 °C”.

On to “3′-d(CTT(6-carbo)CTTTTTTACTTC)-5′ (antisense CTTCTTTTTTACTTC; carbocyclic-ENA-T at position 3 from 3'-end, chemistry not fully specified) [AON 10, carbocyclic-ENA-T modified AON, position 3 from 3′-end]”, for which, in series [1], the “Tm/° C. with DNA” value was 43.5 °C and the “ΔTm* (Tm relative to DNA compliment)” value is −1.5 °C. Also, in series [2], the “Tm/° C. with RNA” value came out at 45.5 °C and the “ΔTm (Tm relative to RNA compliment)” value is “+1.5 °C”. In addition, the “time … (hydrolysis of 3′-terminal nucleotide)” value in series [3] (human blood serum, 21° C.) worked out at 2 h.

For the substance “3′-d(CTT(LNA)CTTTTTTACTTC)-5′ (antisense CTTCTTTTTTACTTC; LNA-T at position 3 from 3'-end, chemistry not fully specified) [AON 2, LNA-T modified AON, position 3 from 3′-end]”, in series [1], the “Tm/° C. with DNA” value came out at 47 °C and the “ΔTm* (Tm relative to DNA compliment)” value was “+2 °C”. For the same substance, in series [2], the “Tm/° C. with RNA” value worked out at 48 °C and the “ΔTm (Tm relative to RNA compliment)” value was “+4 °C”. Further, the “serum stability compared with native AON 1” value in series [3] (human blood serum cleavage pattern) is on record as “only slightly more stable than the native counterpart”. Besides, in series [3] (human blood serum, 21° C.), the “time to full degradation” value is listed as 9 h, the “time to give the n−1 fragment” value is recorded as 35 min and the “time to give the n−2 fragment as major product” value is 5 h.

On to “3′-d(CTTCTT(aza-ENA)TTTTACTTC)-5′ (antisense CTTCTTTTTTACTTC; aza-ENA-T at position 6 from 3'-end, chemistry not fully specified) [AON 15, aza-ENA-T modified AON, position 6 from 3′-end]”, for which, in series [1], the “Tm/° C. with DNA” value stood at 42.5 °C and the “ΔTm* (Tm relative to DNA compliment)” value is −2.5 °C. In addition, in series [2], the “Tm/° C. with RNA” value was determined as 46.5 °C and the “ΔTm (Tm relative to RNA compliment)” value is “+2.5 °C”.

As to “3′-d(CTTCTTTTTT(5-carbo)ACTTC)-5′ (antisense CTTCTTTTTTACTTC; carbocyclic-LNA-T at position 10 from 3'-end, chemistry not fully specified) [AON 9, carbocyclic-LNA-T modified AON, position 10 from 3′-end]”, in series [1], the “Tm/° C. with DNA” value amounted to 43.0 °C and the “ΔTm* (Tm relative to DNA compliment)” value was −2.00 °C. For the same substance, in series [2], the “Tm/° C. with RNA” value came out at 47.5 °C and the “ΔTm (Tm relative to RNA compliment)” value was “+3.5 °C”.

As for “3′-d(CTTCTTTT(6-carbo)TTACTTC)-5′ [AON 12]”, in series [1], the “Tm/° C. with DNA” value worked out at 40.0 °C and the “ΔTm* (Tm relative to DNA compliment)” value was −5.0 °C. Besides, in series [2], the “Tm/° C. with RNA” value is 45.5 °C and the “ΔTm (Tm relative to RNA compliment)” value is “+1.5 °C”.

Regarding “3′-d(CTTCTTTTTT(aza-ENA)ACTTC)-5′ (antisense CTTCTTTTTTACTTC; aza-ENA-T at position 10 from 3'-end, chemistry not fully specified) [AON 17, aza-ENA-T modified AON, position 10 from 3′-end]”, in series [1], the “Tm/° C. with DNA” value is 42 °C and the “ΔTm* (Tm relative to DNA compliment)” value was −3 °C. In series [2], the “Tm/° C. with RNA” value worked out at 48 °C and the “ΔTm (Tm relative to RNA compliment)” value is “+4 °C”.

In the case of “(1R,3R,4R,5R,7S)-7-(2-(Cyanoethoxy-(diisopropylamino)-phosphinoxy)-1-(4,4′-dimethoxytrityloxy methyl)-3-(thymin-1-yl)-2-oxa-bicyclo[2.2.1]heptane [Compound 14]”, in series [1], the “Tm/° C. with DNA” value amounted to 44.5 °C and the “ΔTm* (Tm relative to DNA compliment)” value was −0.5 °C. Besides, in series [2], the “Tm/° C. with RNA” value was 48 °C and the “ΔTm (Tm relative to RNA compliment)” value was “+4 °C”.

Turning to “3′-d(CTT(aza-ENA)CTTTTTTACTTC)-5′ (antisense CTTCTTTTTTACTTC; aza-ENA-T at position 3 from 3'-end, chemistry not fully specified) [AON 14, aza-ENA-T modified AON, position 3 from 3′-end]”, the “time … (hydrolysis of 3′-terminal nucleotide)” value in series [3] (human blood serum, 21° C.) is given as at most 5 h. In series [3] (human blood serum, after 12 h), the “fraction of n−1 fragment” value was “ca. 65%” and the “fraction of n−2 fragment” value was around 35%. For the same substance, in series [3] (human blood serum, within 5 h), the “fraction of n−1 fragment” value was “ca. 85%” and the “fraction of n−2 fragment” value is on record as “ca. 15%”.

As to “3′-d(CTTCTTTT(5-carbo)TTACTTC)-5′ (antisense CTTCTTTTTTACTTC; carbocyclic-LNA-T at position 8 from 3'-end, chemistry not fully specified) [AON 8, carbocyclic-LNA-T modified AON, position 8 from 3′-end]”, in series [1], the “Tm/° C. with DNA” value worked out at 44 °C and the “ΔTm* (Tm relative to DNA compliment)” value was −1.00 °C. Moreover, in series [2], the “Tm/° C. with RNA” value turned out to be 48 °C and the “ΔTm (Tm relative to RNA compliment)” value was “+4 °C”.

In the case of “3′-d(CTTCTT(6-carbo)TTTTACTTC)-5′ [AON 11]”, in series [1], the “Tm/° C. with DNA” value turned out to be 39.5 °C and the “ΔTm* (Tm relative to DNA compliment)” value was −5.5 °C. In series [2], the “Tm/° C. with RNA” value came out at 45.5 °C and the “ΔTm (Tm relative to RNA compliment)” value was “+1.5 °C”.

Turning to “3′-d(CTTCTTTT(aza-ENA)TTACTTC)-5′ (antisense CTTCTTTTTTACTTC; aza-ENA-T at position 8 from 3'-end, chemistry not fully specified) [AON 16, aza-ENA-T modified AON, position 8 from 3′-end]”, in series [1], the “Tm/° C. with DNA” value is 42 °C and the “ΔTm* (Tm relative to DNA compliment)” value is −3 °C. In series [2], the “Tm/° C. with RNA” value was found to be 47.5 °C and the “ΔTm (Tm relative to RNA compliment)” value is “+3.5 °C”.

With 3′-d(CTTCT T(LNA)TTTTACTTC)-5′ [AON 3], in series [1], the “Tm/° C. with DNA” value turned out to be 46.5 °C and the “ΔTm* (Tm relative to DNA compliment)” value is “+1.5 °C”. Further, in series [2], the “Tm/° C. with RNA” value was determined as 49 °C and the “ΔTm (Tm relative to RNA compliment)” value was “+5 °C”.
